Measured values published in ChEMBL document CHEMBL3734705, “Synthesis and in vitro cytotoxicity of novel C-12 substituted-14-deoxy-andrographolide derivatives as potent anti-cancer agents” (2015).

What was measured:
NCI-H226 = assay: Cytotoxicity against human NCI-H226 cells assessed as growth level at 10 uM after 48 hrs by SRB assay; type: functional
A498 = assay: Cytotoxicity against human A498 cells assessed as growth level at 10 uM after 48 hrs by SRB assay; type: functional
[1] = Cytotoxicity against human HCC2998 cells assessed as growth level at 10 uM after 48 hrs by SRB assay; type: functional, HCC 2998
[2] = Cytotoxicity against human DU145 cells assessed as growth level at 10 uM after 48 hrs by SRB assay; type: functional, DU-145
M14 = assay: Cytotoxicity against human M14 cells assessed as growth level at 10 uM after 48 hrs by SRB assay; type: functional
CCRF-CEM = assay: Cytotoxicity against human CCRF-CEM cells assessed as growth level at 10 uM after 48 hrs by SRB assay; type: functional
[3] = Cytotoxicity against human OVCAR4 cells assessed as growth level at 10 uM after 48 hrs by SRB assay; type: functional, OVCAR-4
NCI-H322M = assay: Cytotoxicity against human NCI-H322M cells assessed as growth level at 10 uM after 48 hrs by SRB assay; type: functional
[4] = Cytotoxicity against human RXF393 cells assessed as growth level at 10 uM after 48 hrs by SRB assay; type: functional, RXF 393
[5] = Cytotoxicity against human PC3 cells assessed as growth level at 10 uM after 48 hrs by SRB assay; type: functional, PC-3
[6] = Cytotoxicity against human OVCAR5 cells assessed as growth level at 10 uM after 48 hrs by SRB assay; type: functional, OVCAR-5
[7] = Cytotoxicity against human HCT15 cells assessed as growth level at 10 uM after 48 hrs by SRB assay; type: functional, HCT-15
[8] = Cytotoxicity against human Hs578T cells assessed as growth level at 10 uM after 48 hrs by SRB assay; type: functional, Hs-578T
[9] = Cytotoxicity against human BT549 cells assessed as growth level at 10 uM after 48 hrs by SRB assay; type: functional, BT-549
[10] = Cytotoxicity against human COLO205 cells assessed as growth level at 10 uM after 48 hrs by SRB assay; type: functional, COLO 205
MCF7 = assay: Cytotoxicity against human MCF7 cells assessed as growth level at 10 uM after 48 hrs by SRB assay; type: functional
SK-MEL-28 = assay: Cytotoxicity against human SK-MEL-28 cells assessed as growth level at 10 uM after 48 hrs by SRB assay; type: functional
MDA-MB-468 = assay: Cytotoxicity against human MDA-MB-468 cells assessed as growth level at 10 uM after 48 hrs by SRB assay; type: functional
[11] = Cytotoxicity against human MOLT4 cells assessed as growth level at 10 uM after 48 hrs by SRB assay; type: functional, MOLT-4
[12] = Cytotoxicity against human SF268 cells assessed as growth level at 10 uM after 48 hrs by SRB assay; type: functional, SF-268
NCI-H460 = assay: Cytotoxicity against human NCI-H460 cells assessed as growth level at 10 uM after 48 hrs by SRB assay; type: functional
MDA-MB-231 = assay: Cytotoxicity against human MDA-MB-231 cells assessed as growth level at 10 uM after 48 hrs by SRB assay; type: functional
[13] = Cytotoxicity against human HOP92 cells assessed as growth level at 10 uM after 48 hrs by SRB assay; type: functional, HOP-92
[14] = Cytotoxicity against human SW620 cells assessed as growth level at 10 uM after 48 hrs by SRB assay; type: functional, SW-620
NCI-H23 = assay: Cytotoxicity against human NCI-H23 cells assessed as growth level at 10 uM after 48 hrs by SRB assay; type: functional
[15] = Cytotoxicity against human TK10 cells assessed as growth level at 10 uM after 48 hrs by SRB assay; type: functional, TK-10
[16] = Cytotoxicity against human SNB19 cells assessed as growth level at 10 uM after 48 hrs by SRB assay; type: functional, SNB-19
SR = assay: Cytotoxicity against human SR cells assessed as growth level at 10 uM after 48 hrs by SRB assay; type: functional
U-251 = assay: Cytotoxicity against human U251 cells assessed as growth level at 10 uM after 48 hrs by SRB assay; type: functional
[17] = Cytotoxicity against human HL-60(TB) cells assessed as growth level at 10 uM after 48 hrs by SRB assay; type: functional
SK-MEL-2 = assay: Cytotoxicity against human SK-MEL-2 cells assessed as growth level at 10 uM after 48 hrs by SRB assay; type: functional
HT-29 = assay: Cytotoxicity against human HT-29 cells assessed as growth level at 10 uM after 48 hrs by SRB assay; type: functional
[18] = Cytotoxicity against human LOXIMVI cells assessed as growth level at 10 uM after 48 hrs by SRB assay; type: functional, LOX IMVI
[19] = Cytotoxicity against human HCT116 cells assessed as growth level at 10 uM after 48 hrs by SRB assay; type: functional, HCT-116
[20] = Cytotoxicity against human SF295 cells assessed as growth level at 10 uM after 48 hrs by SRB assay; type: functional, SF-295
[21] = Cytotoxicity against human NCI-ADR-RES cells assessed as growth level at 10 uM after 48 hrs by SRB assay; type: functional
[22] = Cytotoxicity against human RPMI8226 cells assessed as growth level at 10 uM after 48 hrs by SRB assay; type: functional, RPMI-8226
NCI-H522 = assay: Cytotoxicity against human NCI-H522 cells assessed as growth level at 10 uM after 48 hrs by SRB assay; type: functional
[23] = Cytotoxicity against human SNB75 cells assessed as growth level at 10 uM after 48 hrs by SRB assay; type: functional, SNB-75
[24] = Cytotoxicity against human IGROV1 cells assessed as growth level at 10 uM after 48 hrs by SRB assay; type: functional, IGROV-1
[25] = Cytotoxicity against human HOP62 cells assessed as growth level at 10 uM after 48 hrs by SRB assay; type: functional, HOP-62
[26] = Cytotoxicity against human Caki1 cells assessed as growth level at 10 uM after 48 hrs by SRB assay; type: functional, CAKI-1
ACHN = assay: Cytotoxicity against human ACHN cells assessed as growth level at 10 uM after 48 hrs by SRB assay; type: functional
[27] = Cytotoxicity against human OVCAR3 cells assessed as growth level at 10 uM after 48 hrs by SRB assay; type: functional, OVCAR-3
KM12 = assay: Cytotoxicity against human KM12 cells assessed as growth level at 10 uM after 48 hrs by SRB assay; type: functional
A549 = assay: Cytotoxicity against human A549 cells assessed as growth level at 10 uM after 48 hrs by SRB assay; type: functional
[28] = Cytotoxicity against human SF539 cells assessed as growth level at 10 uM after 48 hrs by SRB assay; type: functional, SF-539
SK-MEL-5 = assay: Cytotoxicity against human SK-MEL-5 cells assessed as growth level at 10 uM after 48 hrs by SRB assay; type: functional
[29] = Cytotoxicity against human OVCAR8 cells assessed as growth level at 10 uM after 48 hrs by SRB assay; type: functional, OVCAR-8
T47D = assay: Cytotoxicity against human T47D cells assessed as growth level at 10 uM after 48 hrs by SRB assay; type: functional
K562 = assay: Cytotoxicity against human K562 cells assessed as growth level at 10 uM after 48 hrs by SRB assay; type: functional
MDA-MB-435 = assay: Cytotoxicity against human MDA-MB-435 cells assessed as growth level at 10 uM after 48 hrs by SRB assay; type: functional
EKVX = assay: Cytotoxicity against human EKVX cells assessed as growth level at 10 uM after 48 hrs by SRB assay; type: functional
[30] = Cytotoxicity against human UACC62 cells assessed as growth level at 10 uM after 48 hrs by SRB assay; type: functional, UACC-62
SN12C = assay: Cytotoxicity against human SN12C cells assessed as growth level at 10 uM after 48 hrs by SRB assay; type: functional
[31] = Cytotoxicity against human UACC257 cells assessed as growth level at 10 uM after 48 hrs by SRB assay; type: functional, UACC-257
[32] = Cytotoxicity against human UO31 cells assessed as growth level at 10 uM after 48 hrs by SRB assay; type: functional, UO-31
786-0 = assay: Cytotoxicity against human 786-0 cells assessed as growth level at 10 uM after 48 hrs by SRB assay; type: functional
[33] = Cytotoxicity against human SKOV3 cells assessed as growth level at 10 uM after 48 hrs by SRB assay; type: functional, SK-OV-3
Malme-3M = assay: Cytotoxicity against human MALME-3M cells assessed as growth level at 10 uM after 48 hrs by SRB assay; type: functional

C=C1CC[C@@H]2[C@](C)(COC(C)=O)[C@H](OC(C)=O)CC[C@@]2(C)[C@@H]1CC(NC1CC1)C1=CCOC1=O (mixture of isomers) showed an Activity (NCI-H226) of 106.3%, an Activity (A498) of 102.06% and an Activity [1] of 102.97%. For the same compound, the Activity [2] was 98.78%, the Activity (M14) was 93.67% and the Activity (CCRF-CEM) was 95.35%. For the same compound, the Activity [3] was 101.59%, the Activity (NCI-H322M) was 98.57% and the Activity [4] was 116.59%. For the same compound, the Activity [5] was 77.06%, the Activity [6] was 110.21% and the Activity [7] was 93.63%. For the same compound, the Activity [8] was 110.62%, the Activity [9] was 86.41% and the Activity [10] was 106.86%. For the same compound, the Activity (MCF7) was 85.36%, the Activity (SK-MEL-28) was 107.72% and the Activity (MDA-MB-468) was 91.77%. It also gave an Activity [11] of 87.21%, an Activity [12] of 93.53% and an Activity (NCI-H460) of 105.35%. For the same compound, the Activity (MDA-MB-231) was 100.99%, the Activity [13] was 83.7% and the Activity [14] was 115.37%. For the same compound, the Activity (NCI-H23) was 98.94%, the Activity [15] was 98.64% and the Activity [16] was 100.97%. For the same compound, the Activity (SR) was 73.84%, the Activity (U-251) was 96.2% and the Activity [17] was 102.95%. The Activity (SK-MEL-2) was 104.35%, the Activity (HT-29) was 100.7% and the Activity [18] was 94%. It also gave an Activity [19] of 88.19%, an Activity [20] of 97.25% and an Activity [21] of 98.35%. For the same compound, the Activity [22] was 70.32%, the Activity (NCI-H522) was 78.4% and the Activity [23] was 90.39%. The Activity [24] was 96%, the Activity [25] was 102.23% and the Activity [26] was 98.25%. The Activity (ACHN) was 98.37%, the Activity [27] was 96.85% and the Activity (KM12) was 90.49%. It also gave an Activity (A549) of 82.92%, an Activity [28] of 95.4% and an Activity (SK-MEL-5) of 96.5%. For the same compound, the Activity [29] was 105.48%, the Activity (T47D) was 79.56% and the Activity (K562) was 74.16%. For the same compound, the Activity (MDA-MB-435) was 96.33%, the Activity (EKVX) was 86.69% and the Activity [30] was 84.5%. It also gave an Activity (SN12C) of 101.14%, an Activity [31] of 100.57% and an Activity [32] of 82.44%. It also gave an Activity (786-0) of 107.45%, an Activity [33] of 102.92% and an Activity (Malme-3M) of 89.64%.

Work on C=C1CC[C@@H]2[C@](C)(COC(C)=O)[C@H](OC(C)=O)CC[C@@]2(C)[C@@H]1CC(NCCCCCCCCCCCCCCCCCC)C1=CCOC1=O (mixture of isomers) yielded an Activity (NCI-H226) of 92.06%, an Activity (A498) of 100.06% and an Activity [1] of 114%. The Activity [2] was 108.9%, the Activity (M14) was 102.16% and the Activity (CCRF-CEM) was 104.64%. It also gave an Activity [3] of 114.35%, an Activity (NCI-H322M) of 102.69% and an Activity [4] of 109.25%. The Activity [5] was 89.57%, the Activity [6] was 108.25% and the Activity [7] was 117.13%. For the same compound, the Activity [8] was 103.17%, the Activity [9] was 106.47% and the Activity [10] was 103.75%. It also gave an Activity (MCF7) of 101.73%, an Activity (SK-MEL-28) of 111.23% and an Activity (MDA-MB-468) of 99.82%. For the same compound, the Activity [11] was 95.91%, the Activity [12] was 100.29% and the Activity (NCI-H460) was 105.91%. For the same compound, the Activity (MDA-MB-231) was 96.62%, the Activity [13] was 80.59% and the Activity [14] was 101.13%. For the same compound, the Activity (NCI-H23) was 100.06%, the Activity [15] was 102.72% and the Activity [16] was 102.65%. The Activity (SR) was 101.94%, the Activity (U-251) was 101.78% and the Activity [17] was 100.5%. For the same compound, the Activity (HT-29) was 103.31%, the Activity [18] was 98.11% and the Activity [19] was 105.04%. It also gave an Activity [20] of 112.48%, an Activity [21] of 101.33% and an Activity [22] of 101.07%. The Activity (NCI-H522) was 98.04%, the Activity [23] was 87.94% and the Activity [24] was 110.04%. For the same compound, the Activity [25] was 96.46%, the Activity [26] was 97.66% and the Activity (ACHN) was 113.27%. The Activity [27] was 103.35%, the Activity (KM12) was 107.75% and the Activity (A549) was 101.56%. It also gave an Activity [28] of 101.6%, an Activity (SK-MEL-5) of 101.04% and an Activity [29] of 104.57%. It also gave an Activity (T47D) of 97.23%, an Activity (K562) of 104.45% and an Activity (MDA-MB-435) of 107%. It also gave an Activity (EKVX) of 111.12%, an Activity [30] of 97.28% and an Activity (SN12C) of 103.39%. For the same compound, the Activity [31] was 108.48%, the Activity [32] was 88.83% and the Activity (786-0) was 106.62%. For the same compound, the Activity [33] was 102.04% and the Activity (Malme-3M) was 111.94%.
